Assay results published in US9237750B2, “Ornidazole and related compounds for use as herbicides” (RAMOT AT TEL-AVIV UNIVERSITY LTD., priority 2012, dated 2016).

Legend:
[1] = test system: Anabaena PCC7120; assay: Net O2 exchange (photosynthesis and respiration), O2 electrode; assay type: cell-based, Anabaena PCC7120 (Cyanobacteria)
Protocol: (§1) The cyanobacterium Anabaena PCC7120 was grown in BG-11 medium as was previously described (Marcus Y, et al., 2005. J Bacteriol 187, 4222-4228). The green eukaryotic alga Dunaliella salina was grown on a medium described by Ben-Amotz and Avron (Ben-Amotz A and Avron M 1983. Plant Physiol 72, 593-597), under 20 μmol photons m^−2 sec^−1 at 30° C. The aquatic plant Lemna was collected from an open pond at the Botanical garden of Tel Aviv University. Seedlings of Avena sterilis were grown in pots in a greenhouse. The marine diatom Phaeodactylum tricornutum was grown as described in Haimovich-Dayan et al. (Haimovich-Dayan M. et al. 2012. New Phytol 195:177-185).
The rate of net O2 exchange was determined using a Clark-type O2 electrode (Rank Brothers Ltd, UK). Fluorescent measurements (quantum yield, photochemical and non photochemical quenching) were determined using a modulated fluorometer (PAM, Walz, Germany) as described by Schreiber et al. (Schreiber U et al., 1986. fluorometer. Photosynth Res 10, 51-62) and Snir et al. (Snir A, et al., 2006. Photosynth Res 90, 233-242).
The algae Anabaena PCC7120 (Cyanobacteria), Dunaliella salina (Chlorophyta) and Phaeodactylum tricornutum (Diatoms) were each grown in its suitable medium as described hereinabove towards the mid logarithmic phase. 1 mM Ornidazole was then added to the medium for 5 min, and respiration and photosynthesis were measured for at least 10 min.
The effect of Ornidazole on the rate of photosynthesis of Anabaena was also determined. The algae were grown under various light intensities and saturating inorganic carbon (Ci) concentration, or under various Ci concentrations and saturating irradiance.

[2] = test system: Anabaena PCC7120; assay: Growth of cyanobacterium determined by chlorophyll concentration; assay type: cell-based
Protocol: Cyanobacteria were grown in BG11 medium under 30 μmol photons m^−2 sec^−1 at 30° C. in the presence of the indicated concentration of Ornidazole.
as §1
The effect of Ornidazole on the growth of the cyanobacterium Anabaena PCC7120 was examined by determining the chlorophyll concentration. The algae were grown in BG-11 medium as described herein above. […] One mM Ornidazole in the medium caused a decrease in chlorophyll concentration to 1% of its original concentration after three days of such incubation (FIG. 1).

[3] = test system: photosynthetic electron transport in Anabaena; assay: Photosynthetic electron transport from H2O via reaction centers II and I and Methyl viologen to O2; assay type: cell-based, Anabaena PCC7120; conditions: water to Methyl viologen (1 mM) to oxygen; O2 electrode
Protocol: The rates were determined for cells grown in a growth medium at 30° C. under 180 μmol photons×m^−2×sec^−1. The rate of electron transport from H2O via reaction centers II and I and Methyl viologen to O2 was determined in the presence of 1 mM methyl viologen using an O2 electrode. The effects of Ornidazole on the dark and light reactions of the photosynthetic apparatus were examined. Ornidazole had no effect on the photosynthetic electron transport in Anabaena measured from water as electron donor through the two reaction centers to Methyl viologen and finally to oxygen as an electron acceptor (FIG. 5).

[4] = test system: Anabaena PCC7120; assay: Biodegradation in BG-11 medium in the presence of Anabaena cells (LC-MS); conditions: 0.1 mM, in the presence of cyanobacteria
Protocol: Ornidazole (molecular mass 220 and 222 due to two isotopes of chlorine) or degradation products were sought by LC-MS. The chromatograms of samples from the first and fourth days are shown in FIG. 7B and FIG. 7C, respectively. The retention time and molecular mass of the isolated molecules are designated.
The concentrations of Ornidazole and its degradation product in the medium were determined during the growth of the cyanobacterium Anabaena PCC7120 and in media lacking cyanobacteria in the dark or under illumination. Ornidazole at 0.1 mM concentration was added to three growth tubes containing BG-11 medium: one growth tube was kept in the dark, the second under light conditions of 60 μmol photons m^−2 sec^−1 and the third tube, to which Anabaena cells were added, was also kept under similar light conditions. Samples from each tube were taken every day, separated on a C18 reverse phase HPLC column, and Ornidazole (molecular mass 220 and 222 due to two isotopes of chlorine) or degradation products were sought by LC-MS. A degradation product of molecular mass 184, identified as C7H9N3O3, was found in all three tubes.

[5] = molecular target: glyceraldehyde-3-phosphate dehydrogenase (GAPDH) (Homo sapiens, UniProt P04406); conditions: glycolytic GAPDH; cited from earlier work
[6] = Anabaena PCC7120, 1 mM Ornidazole added for 5 min

Chain of glyceraldehyde-3-phosphate dehydrogenase (GAPDH) (P04406 whole entry, species assumed): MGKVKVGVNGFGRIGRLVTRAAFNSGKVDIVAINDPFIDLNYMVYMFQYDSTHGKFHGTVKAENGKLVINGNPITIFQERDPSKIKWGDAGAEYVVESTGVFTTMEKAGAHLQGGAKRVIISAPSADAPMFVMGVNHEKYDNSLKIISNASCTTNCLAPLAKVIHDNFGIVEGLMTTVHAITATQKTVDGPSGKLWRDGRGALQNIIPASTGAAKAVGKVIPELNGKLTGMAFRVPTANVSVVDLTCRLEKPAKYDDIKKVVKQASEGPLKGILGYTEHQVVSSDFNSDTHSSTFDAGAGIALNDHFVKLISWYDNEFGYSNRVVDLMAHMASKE

Which Photosynthesis [1, 6] does the source give for `Cc1ncc([N+](=O)[O-])n1CC(O)CCl` (stereo not drawn) [Ornidazole, 1-chloro-3-(2-methyl-5-nitro-1H-imidazol-1-yl)propan-2-ol] here?
Its Photosynthesis is −3.7 μmol O2 mg^−1 chl h^−1.

What about the Respiration [1, 6] of the same compound?
Its Respiration is −26.5 μmol O2 mg^−1 chl h^−1.

What about the inhibition at 1000 µM ([1]; Anabaena, 1 mM, read-out: inhibition of respiration rate) of the same compound?
The inhibition at 1000 µM was 30 to 35%.

And the effect on photosynthesis ([1]; Anabaena, higher concentrations (than 1 mM) or longer incubation time)?
The effect on photosynthesis was “abolished photosynthesis”.

What about the “effect on photosynthetic rate” value ([1]; limiting irradiance) of the same compound?
Its value is “inhibited the photosynthetic rate to a lesser extent”.

What about the “effect on photosynthetic rate” value ([1]; saturating irradiance at any Ci concentration) of the same compound?
Its value is “concentration-dependent decrease in the photosynthetic rate”.

What about the effect on growth ([2]; 250 μM Ornidazole in BG-11 medium) of the same compound?
The effect on growth was “stopped the growth and stimulated chlorosis”.

What about the “chlorophyll concentration relative to original concentration” value ([2]; 1 mM Ornidazole in the medium, after three days) of the same compound?
Its value is 1%.

What about the “effect on photosynthetic electron transport” value [3] of the same compound?
The value was “no effect”.

And the “Ornidazole remaining, of its initial concentration” value ([4]; after four days of incubation)?
The value was 10%.

What about the “Ornidazole detection in medium” value ([4]; after seven days) of the same compound?
The value was “could no longer be detected”.

What about the “inhibition of enzyme activity” value [5] of the same compound?
Its value is “inhibits the activity”.
